Earlier results on 3 molecules are cited in publication PMC11705955, “Lack of activity of HIV-1 integrase strand-transfer inhibitors on recombinase activating gene (RAG) activity at clinically relevant concentrations” (Microbiology Spectrum, 2024).

In one series the test system is immunological competence. The arrangement: method as in PMID 22790968. Particulars: TCR Vβ usage by flow cytometry and T cell-dependent antibody response; cited from earlier work.
The conditions of series [1]: clinical concentrations; cited from earlier work.
The target in the next series is RAG1. The note with it: biolayer interferometry; read-out: Dissociation constant from RAG1; cited from earlier work. A general note: In BLI a coated tip is dipped into the sample, and binding shifts an interference pattern.
In the next series the test system is T or B cells. The note with it: cited from earlier work.
Another series relates to murine RAG1/RAG2. The arrangement: method as in PMID 11756686. The note with it: read-out: IC50 on RAG1/RAG2 in vitro; cited from earlier work.

Regarding `C[C@@H]1CCO[C@H]2Cn3cc(C(=O)NCc4ccc(F)cc4F)c(=O)c(O)c3C(=O)N12` [DTG, dolutegravir], in the series on immunological competence, the “Impact on immunological competence in juvenile rats” value is reported as “no impact on immunological competence”. Also, the Free drug fraction in series [1] was 0.70%.

Regarding `COc1cc2c(cc1Cc1cccc(Cl)c1F)c(=O)c(C(=O)O)cn2[C@H](CO)C(C)C` [EVG, elvitegravir], the Kd at RAG1 is 32.5 µM. In addition, the “Effect on T or B cells in treated mice” value in the series with T or B cells is listed as “did not show a large decrease in T or B cells”. The Free drug fraction in series [1] is 0.48%.

As to `O=C(/C=C(\O)c1nnn[nH]1)c1c[nH]c2ccc(Cl)cc12` [p8, 5-CITEP], the IC50 in the series with murine RAG1/RAG2 was 200 µM.
